Earlier results on two sequences are cited in PMC3459150 (Atherosclerosis, 2012).

The conditions of data set [1]: apo E null mice.
Data set [2] relates to dyslipidemic mouse models.
For data set [3], the system named is apoE null mice. Particulars: chronic administration.

Consider DWFKAFYDKVAEKFKEAF [4F], for which, in data set [1] (peritoneally-injected), the Half-time of clearance is listed as 2.01 h. In data set [2], the Inhibition of atherosclerosis result is given as “able to inhibit atherosclerosis” and the Plasma cholesterol levels entry is on record as “without changing plasma cholesterol levels”.
With “LRKLRKRLLRDWLKAFYDKVAEKLKEAF [Ac-hE18A-NH2]”, in data set [1] (intravenous, bi-phasic), the “Half-time of clearance, rapid phase” value is on record as 0.027 h and the “Half-time of clearance, slow phase” value is listed as 1.61 h. The “Atheroprotection / inhibition of atherosclerosis” value in data set [3] is listed as “inhibits atherosclerosis”.
